Laboratory results as given in patent US7416736B2, “Antimicrobial compositions” (Janssen Pharmaceutica N.V., priority 2001, dated 2008).

Columns and labels:
Type in all cases: cell-based
[1] = system: Escherichia coli IFO 3972; experiment: MIC against bacteria in nutrient broth (Working Example 1); settings: weight ratio 0:1 (second component alone), 24 hours at 30° C.
Method: (§1) By the following working examples, we describe in greater detail the antimicrobial effectiveness of the antimicrobial compositions of this invention. The term “MIC” as used in these working examples refers to the minimum inhibitory concentration (ppm) of the active ingredient in the antimicrobial compositions. […] The bacterial suspensions for inoculation used in working example 1 were prepared as follows. […] Next, test culture media were prepared by adding each of the varying diluted aqueous solutions (0.2 ml) of the antimicrobial compositions to a nutrient broth culture medium (10 ml). Each of these test culture media was inoculated with the above bacterial suspensions for inoculation (0.1 ml), and after culturing for 24 hours at 30° C. Then, the presence or absence of bacteria growth was assessed by visually observing the turbidity of the culture medium.

[2] = system: Staphylococcus aureus IFO 12732; experiment: as above; settings: weight ratio 0:1 (second component alone), 24 hours at 30° C.
Method: as §1

[3] = system: Aspergillus niger IFO 6341; experiment: MIC against fungi on potato dextrose agar (Working Example 2); settings: weight ratio 0:1 (second component alone), 7 days at 28° C.; for MIC: Aspergillus niger, IFO6341, 168 h, read-out: Minimum inhibitory concentration (ppm) against Aspergillus niger
Method: (§2) By the following working examples, we describe in greater detail the antimicrobial effectiveness of the antimicrobial compositions of this invention. The term “MIC” as used in these working examples refers to the minimum inhibitory concentration (ppm) of the active ingredient in the antimicrobial compositions. […] The spore suspensions for inoculation used in working example 2 were prepared as follows. Two fungi, Aspergillus niger IFO 6341 and Penicillium funiculosum IFO 6345, were cultured on two potato dextrose agar culture media not containing any biocides, and spores were formed. Next, said fungus spores were dispersed in disinfectant water to which 0.005% lubricant had been added, and two spore suspensions for inoculation were thus prepared. […] Next, test culture media were prepared by adding each of the varying diluted aqueous solutions (0.3 ml) of these antimicrobial compositions to a potato dextrose agar culture medium (15 ml). Each of these test culture media was inoculated with the above spore suspensions for inoculation (1 ml), and after culturing for 7 days at 28° C. Then, the presence or absence of fungus growth on each culture medium was observed visually.

[4] = system: Penicillium funiculosum IFO 6345; experiment: as above; settings: weight ratio 0:1 (second component alone), 7 days at 28° C.; for MIC: Talaromyces funiculosus, IFO6345, 168 h, read-out: Minimum inhibitory concentration (ppm) against Penicillium funiculosum
Method: as §2

[5] = system: Chlorella pyrenoidosa NIES 226; experiment: MIC against algae on Bold's Basal agar (Working Example 3); settings: weight ratio 0:1 (second component alone); 14 days at 25° C. and 1500 lux
Method: By the following working examples, we describe in greater detail the antimicrobial effectiveness of the antimicrobial compositions of this invention. The term “MIC” as used in these working examples refers to the minimum inhibitory concentration (ppm) of the active ingredient in the antimicrobial compositions. […] The algae suspensions for inoculation used in working example 3 were prepared as follows. Bold's Basal liquid culture medium (50 ml) was inoculated with Chlorella pyrenoidosa NIES 226, it was shake-cultured for 14 days at 25° C., and algae suspensions for inoculation was thus prepared. […] Next, test culture media were prepared by adding each of the varying diluted aqueous solutions (0.1 ml) of these antimicrobial compositions to Bold's Basal agar culture medium (15 ml). Each of these test culture media was inoculated with the above algae suspensions for inoculation (1 ml), and after culturing for 14 days at 25° C. and 1500 lux. Then, the presence or absence of algae growth on each culture medium was observed visually. […] Table 5 lists the MIC, for algae, of the antimicrobial composition of each weight ratio.

| MIC ([1]; Escherichia coli, IFO3972, read-out: Minimum inhibitory concentration (ppm) against Escherichia coli) [µg/mL] | MIC ([2]; Staphylococcus aureus, IFO12732, read-out: Minimum inhibitory concentration (ppm) against Staphylococcus aureus) [µg/mL] | Structure (SMILES) | MIC [3] [µg/mL] | MIC [4] [µg/mL] | Minimum inhibitory concentration (ppm) against Chlorella pyrenoidosa [5] [ppm] | Minimum inhibitory concentration (ppm) against Escherichia coli [1] [ppm] | Minimum inhibitory concentration (ppm) against Staphylococcus aureus [2] [ppm] | Minimum inhibitory concentration (ppm) against Aspergillus niger [3] [ppm] | Minimum inhibitory concentration (ppm) against Penicillium funiculosum [4] [ppm] |
| --- | --- | --- | --- | --- | --- | --- | --- | --- | --- |
| 1000 | 20 | Clc1ccc(OCOCC#CI)cc1 [b, 1-chloro-4-[[(3-iodo-2-propynyl)oxy]methoxy] benzene] | 1 | 4 | 10 | – | – | – | – |
| – | – | [O-][n+]1ccccc1[S-].[O-][n+]1ccccc1[S-].[Zn+2] [c, Zinc 2-pyridine thiol-1-oxide] | – | – | 20 | 40 | 40 | 10 | 1 |
| – | – | [Cu+2].[O-][n+]1ccccc1[S-].[O-][n+]1ccccc1[S-] [d, Copper 2-pyridine thiol-1-oxide] | – | – | 100 | 200 | 10 | 400 | 1 |
| – | – | [Na+].[O-][n+]1ccccc1[S-] [e, 2-pyridine thiol-1-oxide sodium salt] | – | – | 40 | 200 | 10 | 400 | 2 |
| – | – | [O-][n+]1ccccc1SSc1cccc[n+]1[O-] [f, 2,2-dithio-bis(pyridine-1-oxide)] | – | – | 10 | 10 | 4 | 10 | 1 |
| – | – | CSc1nc(NC2CC2)nc(NC(C)(C)C)n1 [g, 2-methylthio-4-t-butyl amino-6-cyclopropyl amino-s-triazine] | – | – | 0.1 | – | – | – | – |
| – | – | CCCCNC(=O)OCC#CI [h, 3-iodo-2-propynyl butylcarbamate] | 1 | 1 | 40 | – | – | – | – |
| – | – | CCCCCCCCn1sccc1=O [i, 2-(n-octyl)-3(2H)-isothiazolone] | 0.4 | 0.2 | 20 | – | – | – | – |
